# Reference: US20100104552A1, “ANTIBIOTIC SYNERGISM” (priority 2008, published 2010)
# Experiments:
# Format in all cases: cell-based
# [1] = test system: bacterial membrane; assay: K+-efflux of exposed bacteria; conditions: bacteria exposed to the defensin
# [2] = test system: bacterial membrane; assay: Trans-membrane potential of exposed bacteria; conditions: bacteria exposed to the defensin
# [3] = test system: bacterial cells; assay: Traditional incorporation studies
# [4] = test system: vancomycin-resistant Staphylococcus aureus (VRSA); assay: Cross-resistance with vancomycin resistance
Substance,K+-efflux [1],trans-membrane potential [2],incorporation of cell wall precursors [3],cross-resistance [4]
GFGCNGPWNEDDLRCHNHCKSIKGYKGGYCAKGGFVCKCY [Defensin2114],No K^+-efflux could be detected,remained intact,severely affected,No cross-resistance
Plectasin,No K^+-efflux could be detected,remained intact,severely affected,No cross-resistance
